Legend:
Format in all cases: in vivo, C57BL/6 mice
[1] = tested on: IL-17A; assay: Cytokine production assay (ELISA), IL-17A in blood serum and skin of IMQ-induced psoriasis-like mice; details: blood serum samples and skin samples; glucosamine 300 mg/kg, cyclosporine A 10 and 20 mg/kg; co-administration vs each alone; alone vs control group (IMQ alone)
Description: (§1) To measure cytokine levels in blood serum, mouse blood serum was collected 24 hours after the final administration and stored at −70° C. until analysis. To measure cytokine levels in the skin tissues, the back skin of mice was removed and stored at −80° C. Thereafter, the skin tissues were homogenized using a Bullet Blender™ Blue (Next Advance, Averill Park, N.Y.) at 4° C. to obtain supernatants, and the supernatants were stored at −30° C. IL-17A, IL-22, IL-23, and TNF-α concentrations in the blood serum and the skin tissues of mice were measured using the Mouse IL-17A Quantikine ELISA Kit (R&D Systems, Minneapolis, Minn., USA), IL-22, IL-23 and TNF-α ELISA kits (eBioscience, San Diego, Calif., USA). Meanwhile, ELISA was performed according to the manufacturer's instructions.

[2] = tested on: IL-23; assay: Cytokine production assay (ELISA), IL-23 in blood serum and skin of IMQ-induced psoriasis-like mice; details: blood serum samples and skin samples; glucosamine 300 mg/kg, cyclosporine A 10 and 20 mg/kg; co-administration vs each alone; alone vs control group (IMQ alone)
Description: as §1

[3] = tested on: TNF-α; assay: Cytokine production assay (ELISA), TNF-α in blood serum and skin of IMQ-induced psoriasis-like mice; details: blood serum samples and skin samples; glucosamine 300 mg/kg, cyclosporine A 10 and 20 mg/kg; co-administration vs each alone; alone vs control group (IMQ alone)
Description: as §1

[4] = tested on: IMQ-induced psoriasis-like mouse model; assay: Skin lesion score (erythema+scaling+thickening) in IMQ-induced psoriasis-like mouse model; details: for severity of psoriasis-like skin lesions (cumulative score erythema+scaling+thickening): oral, 7 days
Description: More specifically, hair on the backs of C57BL/6 mice was shaved off using an electric razor and then treated with a depilatory (Niclean, Ildong, Korea). For all other groups except a normal group, 62.5 mg of IMQ cream was applied daily to the shaved back area for 14 days.
On the other hand, the normal group as a negative control group was treated only with a vehicle cream (petrolatum).
The degree of (1) erythema, (2) scaling and (3) thickening was scored as 0 (none), 1 (mild), 2 (moderate) and 3 (severe). A cumulative dermatitis score (erythema+scaling+thickening) indicates the severity of psoriasis in back skin (scale: 0-9).
The clinical skin scores were calculated by summing the scores obtained on the basis of symptoms of erythema, scaling and thickening.

[5] = tested on: CD4+ CD25+ Treg cells; assay: Flow cytometry of regulatory T (Treg) cells from spleens of IMQ-induced psoriasis-like mice; details: spleen cells; glucosamine 300 mg/kg, cyclosporine A 20 mg/kg; co-administration vs each alone; alone vs control group (IMQ alone)
Description: Single-cell suspensions prepared from spleens were stained with FITC-anti-CD4 (GK1.5) and PE-anti-CD25 (280406) (R&D Systems, Minneapolis, Minn., USA), and incubated in a PBS solution containing 2% FBS at 4° C. for 30 minutes under dark conditions. After incubation, the samples were washed twice and analyzed using CellQuest software (Becton Dickinson).

[6] = tested on: IL-22; assay: Cytokine production assay (ELISA), IL-22 in blood serum and skin of IMQ-induced psoriasis-like mice; details: blood serum samples and skin samples; glucosamine 300 mg/kg, cyclosporine A 10 and 20 mg/kg; co-administration vs each alone; alone vs control group (IMQ alone)
Description: as §1

N[C@@H]1C(O)O[C@H](CO)[C@H](O)[C@@H]1O (stereo in doubt) [glucosamine]
IL-17A level [1]: no significant difference
IL-23 level [2]: no significant difference
level of TNF-α [3]: no significant difference
clinical skin scores ([4]; glucosamine 300 mg/kg, cyclosporine A 10 and 20 mg/kg, oral once a day for a week, co-administration vs each alone, alone vs control group (IMQ alone)): no significant difference
severity of psoriasis-like skin lesions (cumulative score erythema+scaling+thickening) ([4]; high doses alone: glucosamine 400 mg/kg, cyclosporine A 40 mg/kg): reduced
severity of psoriasis-like skin lesions (cumulative score erythema+scaling+thickening) ([4]; low doses alone: glucosamine 100, 200 and 300 mg/kg, cyclosporine A 10 and 20 mg/kg): no significant effect
number of CD4+ CD25+ Treg cells [5]: no significant difference
IL-22 level [6]: no significant difference
